Literature values as cited in patent US8703048B2, “Buffered swelling media for radiation sterilized hydrophilic coatings” (Coloplast A/S, priority 2008, dated 2014).

Details: in water; for pKa: single value given

| SMILES | pKa | pKa1 | pKa2 | pKa3 |
| --- | --- | --- | --- | --- |
| O=C(O)CCO [3-hydroxypropionic acid] | 3.73 |  |  |  |
| Nc1ccccc1C(=O)O [anthranilic acid] |  | 2.11 | 4.95 |  |
| NCCC(=O)N[C@@H](Cc1cnc[nH]1)C(=O)O [carnosine] |  | 2.73 | 6.87 | 9.73 |
| N#CO [cyanic acid] | 3.92 |  |  |  |
| O=C(O)[C@H](O)[C@@H](O)[C@H](O)[C@H](O)CO [gluconic acid] | 3.56 |  |  |  |
| O=C(O)CCCC(=O)O [glutaric acid] |  | 4.31 | 5.41 |  |
| O=C(O)CNC(=O)c1ccccc1 [hippuric acid] | 3.80 |  |  |  |
| F [hydrofluoric acid] | 3.45 |  |  |  |
